Measured values taken from the supplement of paper PMC11061612.

Key:
Assay in all cases: Bliss excess, mean over the matrix (fraction); higher = more synergy
AM-38 (Glioblastoma) = tested on: AM-38 (Glioblastoma)
Method in brief: (§1)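 Bliss excess equals the observed combination effect minus the expected value EA + EB − EA·EB, where EA and EB are the effects of each agent alone. Combination Emax is the second-highest inhibition within the matrix. Inhibition was scaled from CellTiter-Glo 2.0 luminescence, with 0 set by vehicle wells and 1 by blank wells, after 72 hours of two-drug dosing of cells plated in 1536-well plates.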

[1] = tested on: BxPC-3 (Pancreatic Carcinoma)
Method in brief: as §1

[2] = tested on: CL-11 (Colorectal Carcinoma)
Method in brief: as §1

[3] = tested on: COR-L88 (Small Cell Lung Carcinoma)
Method in brief: as §1

[4] = tested on: CPC-N (Small Cell Lung Carcinoma)
Method in brief: as §1

[5] = tested on: IA-LM (Non-Small Cell Lung Carcinoma)
Method in brief: as §1

[6] = tested on: NCI-H1876 (Small Cell Lung Carcinoma)
Method in brief: as §1

NCI-H226 (Mesothelioma) = tested on: NCI-H226 (Mesothelioma)
Method in brief: as §1

[7] = tested on: NCI-H3118 (Head and Neck Carcinoma)
Method in brief: as §1

[8] = tested on: OAW-28 (Ovarian Carcinoma)
Method in brief: as §1

[9] = tested on: P30-OHK (B-Lymphoblastic Leukemia)
Method in brief: as §1

[10] = tested on: P32-ISH (Burkitt's Lymphoma)
Method in brief: as §1

[11] = tested on: RCC-JW (Kidney Carcinoma)
Method in brief: as §1

[12] = tested on: Raji (Burkitt's Lymphoma)
Method in brief: as §1

[13] = tested on: SK-CO-1 (Colorectal Carcinoma)
Method in brief: as §1

[14] = tested on: SKG-IIIa (Cervical Carcinoma)
Method in brief: as §1

[15] = tested on: SNU-423 (Hepatocellular Carcinoma)
Method in brief: as §1

[16] = tested on: SNU-C2B (Colorectal Carcinoma)
Method in brief: as §1

[17] = tested on: SUP-M2 (T-Cell Non-Hodgkin's Lymphoma)
Method in brief: as §1

[18] = tested on: ZR-75-30 (Breast Carcinoma)
Method in brief: as §1

Row | SMILES | Bliss excess (AM-38 (Glioblastoma)) | Bliss excess [1] | Bliss excess [2] | Bliss excess [3] | Bliss excess [4] | Bliss excess [5] | Bliss excess [6] | Bliss excess (NCI-H226 (Mesothelioma)) | Bliss excess [7] | Bliss excess [8] | Bliss excess [9] | Bliss excess [10] | Bliss excess [11] | Bliss excess [12] | Bliss excess [13] | Bliss excess [14] | Bliss excess [15] | Bliss excess [16] | Bliss excess [17] | Bliss excess [18]
1 | Cc1c2c(nn1C)CSCc1cc(n(C)n1)CSc1cc(c3ccccc3c1)OCCCc1c(C(=O)O)n(C)c3c-2c(Cl)ccc13 [AZD5991] + CC1(C)CCC(CN2CCN(c3ccc(C(=O)NS(=O)(=O)c4ccc(NCC5CCOCC5)c([N+](=O)[O-])c4)c(Oc4cnc5[nH]ccc5c4)c3)CC2)=C(c2ccc(Cl)cc2)C1 [Venetoclax] (first compound max 1 µM, 7x7, partner max 1 µM) | -0.0091 | 0.0411 | -0.0254 | 0.136 | -0.017 | -0.007 | 0.12 | -0.0582 | -0.0163 | 0.13 | 0.285 | 0.0054 | -0.0335 | 0.0287 | -0.0378 | -0.0115 | -0.0736 | -0.0289 | 0.0286 | 0.0527
2 | CC1(C)CCC(CN2CCN(c3ccc(C(=O)NS(=O)(=O)c4ccc(NCC5CCOCC5)c([N+](=O)[O-])c4)c(Oc4cnc5[nH]ccc5c4)c3)CC2)=C(c2ccc(Cl)cc2)C1 [Venetoclax] + Cn1cnc2c(F)c(Nc3ccc(Br)cc3Cl)c(C(=O)NOCCO)cc21 [Selumetinib] (first compound max 1 µM, 7x7, partner max 3 µM) | -0.108 | 0.0009 | -0.0494 | 0.0341 | -0.0454 | -0.0248 | -0.0335 | -0.0799 | -0.0276 | 0.0047 | 0.036 | 0.0152 | -0.0396 | -0.003 | 0.001 | -0.0275 | -0.11 | -0.0107 | 0.0165 | -0.034
3 | CC(=O)c1c(C)c2cnc(Nc3ccc(N4CCNCC4)cn3)nc2n(C2CCCC2)c1=O [Palbociclib] + CC1(C)CCC(CN2CCN(c3ccc(C(=O)NS(=O)(=O)c4ccc(NCC5CCOCC5)c([N+](=O)[O-])c4)c(Oc4cnc5[nH]ccc5c4)c3)CC2)=C(c2ccc(Cl)cc2)C1 [Venetoclax] (first compound max 10 µM, 7x7, partner max 1 µM) | -0.0058 | -0.0429 | -0.0286 | -0.0764 | -0.0394 | -0.0647 | 0.0162 | -0.0174 | -0.0142 | -0.0112 | 0.126 | -0.0132 | -0.0539 | 0.0634 | -0.122 | -0.0667 | -0.034 | -0.036 | -0.0058 | -0.0434
4 | CN(CCO)CC[C@H](CSc1ccccc1)Nc1ccc(S(=O)(=O)NC(=O)c2ccc(N3CCC([C@@H](O)c4ccccc4-c4ccc(Cl)cc4)CC3)cc2)cc1S(=O)(=O)C(F)(F)F [AZD4320] + C1CN(CCC1(C(=O)N[C@@H](CCO)C2=CC=C(C=C2)Cl)N)C3=NC=NC4=C3C=CN4 [Capivasertib] (first compound max 1 µM, 7x7, partner max 3 µM) | -0.0484 | -0.0395 | -0.0496 | 0.0065 | -0.0158 | -0.0888 | -0.0593 | -0.0589 | -0.0476 | -0.0345 | 0.0169 | 0.001 | -0.0559 | -0.0109 | -0.0462 | -0.0318 | -0.0338 | -0.0305 | -0.0192 | -0.0914
5 | COc1nnc2ccc(N3CCC(c4ccc(OCCN5CCN(C)C(=O)[C@H]5C)cc4)CC3)nn12 [AZD5153] + C[C@@H]1COCCN1C2=NC(=NC(=C2)C3(CC3)[S@](=N)(=O)C)C4=C5C=CNC5=NC=C4 [AZD6738] (first compound max 1 µM, 7x7, partner max 10 µM) | 0.0447 | -0.0013 | -0.0383 | -0.0201 | -0.0692 | -0.0353 | 0.089 | 0.0038 | -0.0879 | 0.11 | -0.0012 | -0.0039 | 0.0051 | -0.0198 | -0.0179 | 0.0105 | -0.0023 | 0.0233 | -0.0205 | 0.019
6 | CC(=O)Nc1cccc(-n2c(=O)n(C3CC3)c(=O)c3c(Nc4ccc(I)cc4F)n(C)c(=O)c(C)c32)c1 [Trametinib] + Cc1nc(-c2cn3c(n2)-c2ccc(-c4cnn(C(C)(C)C(N)=O)c4)cc2OCC3)n(C(C)C)n1 [Taselisib] (first compound max 1 µM, 7x7, partner max 10 µM) | 0.117 | 0.354 | 0.139 | 0.0085 | 0.0985 | 0.0972 | 0.132 | 0.003 | 0.13 | 0.158 | 0.151 | 0.0479 | 0.0114 | 0.0075 | 0.0523 | 0.112 | 0.0727 | 0.114 | 0.106 | 0.0155
7 | Cc1c2c(nn1C)CSCc1cc(n(C)n1)CSc1cc(c3ccccc3c1)OCCCc1c(C(=O)O)n(C)c3c-2c(Cl)ccc13 [AZD5991] + C[C@@H](Nc1cc(F)cc(F)c1)c1cc(C(=O)N(C)C)cc2c(=O)cc(N3CCOCC3)oc12 [AZD8186] (first compound max 1 µM, 7x7, partner max 3 µM) | -0.0352 | -0.0059 | -0.0377 | -0.0524 | -0.0085 | -0.0274 | 0.0156 | -0.0268 | -0.0161 | 0.0538 | 0.0058 | 0.0273 | 0.0126 | 0.0164 | -0.0398 | -0.0411 | -0.0326 | -0.0337 | -0.0203 | 0.0179
8 | Cc1c2c(nn1C)CSCc1cc(n(C)n1)CSc1cc(c3ccccc3c1)OCCCc1c(C(=O)O)n(C)c3c-2c(Cl)ccc13 [AZD5991] + CCN(CCO)CCCOc1ccc2c(Nc3cc(CC(=O)Nc4cccc(F)c4)[nH]n3)ncnc2c1 [AZD2811] (first compound max 1 µM, 7x7, partner max 1 µM) | 0.0138 | 0.0412 | -0.021 | 0.0453 | 0.0311 | 0.0059 | 0.058 | 0.0097 | 0.0796 | 0.095 | -0.0342 | -0.0194 | 0.0024 | 0.0766 | -0.0337 | 0.0203 | -0.0322 | 0.0057 | 0.0104 | 0.0825
9 | Cc1cc2ncnn2cc1Nc1ncc2c(n1)n(C1CCOCC1)c(=O)n2C [AZD7648] + C[C@@H]1COCCN1C2=NC(=NC(=C2)C3(CC3)[S@](=N)(=O)C)C4=C5C=CNC5=NC=C4 [AZD6738] (first compound max 10 µM, 7x7, partner max 10 µM) | -0.0015 | 0.0044 | -0.028 | 0.0291 | -0.0013 | 0.0867 | 0.0004 | 0.046 | 0.0555 | 0.033 | 0.0253 | -0.0029 | 0.0176 | 0.0011 | 0.0003 | 0.0412 | 0.0426 | -0.0036 | 0.0562 | -0.0224
10 | CC1(C)CCC(CN2CCN(c3ccc(C(=O)NS(=O)(=O)c4ccc(NCC5CCOCC5)c([N+](=O)[O-])c4)c(Oc4cnc5[nH]ccc5c4)c3)CC2)=C(c2ccc(Cl)cc2)C1 [Venetoclax] + C[C@@H]1COCCN1C2=NC(=NC(=C2)C3(CC3)[S@](=N)(=O)C)C4=C5C=CNC5=NC=C4 [AZD6738] (first compound max 1 µM, 7x7, partner max 10 µM) | 0.0223 | 0.0101 | -0.0395 | 0.0109 | -0.0526 | -0.01 | -0.0358 | -0.0383 | -0.0643 | -0.0216 | 0.154 | 0.0365 | -0.0484 | 0.0091 | -0.103 | -0.021 | -0.0801 | -0.0102 | 0.0239 | -0.0359
11 | CCN(CCO)CCCOc1ccc2c(Nc3cc(CC(=O)Nc4cccc(F)c4)[nH]n3)ncnc2c1 [AZD2811] + C[C@@H]1COCCN1C2=NC(=NC(=C2)C3(CC3)[S@](=N)(=O)C)C4=C5C=CNC5=NC=C4 [AZD6738] (first compound max 1 µM, 7x7, partner max 10 µM) | -0.0202 | -0.0352 | -0.0488 | -0.0598 | -0.0794 | -0.0264 | -0.0316 | -0.069 | -0.0682 | -0.0207 | -0.0736 | -0.0153 | -0.0203 | -0.0562 | -0.0309 | -0.0409 | -0.0386 | -0.0581 | -0.0545 | -0.0533
12 | CN(CCO)CC[C@H](CSc1ccccc1)Nc1ccc(S(=O)(=O)NC(=O)c2ccc(N3CCC([C@@H](O)c4ccccc4-c4ccc(Cl)cc4)CC3)cc2)cc1S(=O)(=O)C(F)(F)F [AZD4320] + Cn1cnc2c(F)c(Nc3ccc(Br)cc3Cl)c(C(=O)NOCCO)cc21 [Selumetinib] (first compound max 1 µM, 7x7, partner max 3 µM) | 0.0746 | 0.0749 | 0.0489 | 0.121 | -0.0185 | 0.0652 | 0.0752 | -0.0248 | 0.0807 | 0.0927 | 0.0291 | 0.044 | -0.0079 | 0.0188 | 0.0154 | 0.0044 | -0.0228 | 0.0528 | 0.0058 | -0.06
13 | C=CCn1c(=O)c2cnc(Nc3ccc(N4CCN(C)CC4)cc3)nc2n1-c1cccc(C(C)(C)O)n1 [AZD1775] + O=C(c1cc(Cc2n[nH]c(=O)c3ccccc23)ccc1F)N1CCN(C(=O)C2CC2)CC1 [Olaparib] (first compound max 1 µM, partner max 10 µM) | -0.0018 | -0.0266 | -0.0099 | -0.0925 | 0.0183 | -0.0513 | 0.0311 | -0.035 | -0.0301 | -0.0237 | -0.0021 | -0.0323 | -0.0005 | -0.016 | -0.0858 | -0.0648 | -0.0577 | 0.0056 | 0.0276 | -0.0461
14 | Cn1cnc2c(F)c(Nc3ccc(Br)cc3Cl)c(C(=O)NOCCO)cc21 [Selumetinib] + C=CCn1c(=O)c2cnc(Nc3ccc(N4CCN(C)CC4)cc3)nc2n1-c1cccc(C(C)(C)O)n1 [AZD1775] (first compound max 10 µM, partner max 1 µM) | -0.0541 | 0.0243 | 0.0024 | -0.011 | -0.0858 | -0.0017 | -0.021 | -0.0331 | 0.0207 | -0.0604 | -0.0789 | -0.0186 | -0.0542 | -0.041 | -0.0579 | -0.0733 | -0.0078 | -0.0667 | 0.0582 | -0.0587
